Experimental data from patent publication US10618903B2, “Heteroaryl substituted aminopyridine compounds” (BRISTOL-MYERS SQUIBB COMPANY, priority 2015, dated 2020).
pEC50, pIC50: −log10 of the molar value.

Legend:
IRAK4 = IRAK4 (Homo sapiens (Human), UniProt Q9NWZ3); test: IRAK4 Inhibition Assay; assay type: biochemical; settings: ATP 500 μM; IRAK4 0.6 nM
In short: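 Mobility-shift kinase assay: 0.6 nM IRAK4, 500 μM ATP, 1.5 μM fluorescent peptide, 60 min, room temperature. Percent inhibition was normalised between enzyme-free and DMSO-only wells.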

Caco Permeability Assay = assay type: in vitro ADME; settings: human, Caco-2, Caco-2 cells, 3 μM compound
[1] = system: IL-6 levels in human whole blood stimulated with a TLR2 agonist; test: IRAK4 Whole Blood Assay (lipoteichoic acid/TLR2-stimulated IL-6); assay type: cell-based; settings: lipoteichoic acid 10 μg/mL, IL-6 readout
In short: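 IL-6 was quantified by cytometric bead assay in supernatants of human blood (ACD-A) stimulated for 5 h with lipoteichoic acid at 10 μg/mL final. Compound exposure preceded stimulation for 60 min at 37 °C, 5% CO2.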

Chain of IRAK4 (Q9NWZ3 whole entry): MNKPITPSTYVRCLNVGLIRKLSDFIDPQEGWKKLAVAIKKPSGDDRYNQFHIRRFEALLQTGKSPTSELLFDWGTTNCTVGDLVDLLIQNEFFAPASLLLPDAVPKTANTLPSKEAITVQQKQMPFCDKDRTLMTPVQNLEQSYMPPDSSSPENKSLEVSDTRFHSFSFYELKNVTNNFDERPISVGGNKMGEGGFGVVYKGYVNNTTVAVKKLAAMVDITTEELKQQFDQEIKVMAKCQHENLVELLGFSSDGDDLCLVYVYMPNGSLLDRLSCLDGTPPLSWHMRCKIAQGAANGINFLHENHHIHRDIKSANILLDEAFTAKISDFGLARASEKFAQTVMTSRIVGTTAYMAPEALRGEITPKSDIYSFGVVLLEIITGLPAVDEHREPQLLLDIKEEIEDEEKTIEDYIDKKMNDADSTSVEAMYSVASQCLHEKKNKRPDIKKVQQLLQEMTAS

Row | pIC50 (IRAK4) | Papp at 2 h, 3 µM (Caco Permeability Assay) [×10⁻⁶ cm/s] | pEC50 ([1]; Homo sapiens) | pEC50 [1] | Structure (SMILES)
1 | 8.70 | 8.9 | 6.12 | – | CC(C)(O)[C@H](F)CNC(=O)c1cnc(-c2cnc3cc(C#N)cnn23)cc1NC1CCC1 [Example 183, (R)-6-(7-cyanoimidazo[1,2-b]pyridazin-3-yl)-4-(cyclobutylamino)-N-(2-fluoro-3-hydroxy-3-methylbutyl)nicotinamide]
2 | 7.77 | 22.1 | 5.72 | – | CC(C)Nc1cc(-c2cnn3cc(F)cnc23)ncc1C(=O)NC[C@@H](F)C(C)(C)O [Example 130, (R)—N-(2-fluoro-3-hydroxy-3-methylbutyl)-6-(6-fluoropyrazolo[1,5-a]pyrimidin-3-yl)-4-(isopropylamino)nicotinamide]
3 | 8.70 | < 1.5 | 6.74 | – | Cn1cc(Nc2cc(-c3cnn4cc(C#N)cnc34)ncc2C(=O)NC[C@@H](F)C(C)(C)O)cn1 [Example 240, (R)-6-(6-cyanopyrazolo[1,5-a]pyrimidin-3-yl)-N-(2-fluoro-3-hydroxy-3-methylbutyl)-4-((1-methyl-1H-pyrazol-4-yl)amino)nicotinamide]
4 | 8.40 | 1.8 | 6.39 | – | CC(F)(F)Cn1ccc(Nc2cc(-c3cnn4cc(C#N)cnc34)ncc2C(=O)NC[C@@H](F)C(C)(C)O)n1 [Example 245, (R)-6-(6-cyanopyrazolo[1,5-a]pyrimidin-3-yl)-4-((1-(2,2-difluoropropyl)-1H-pyrazol-3-yl)amino)-N-(2-fluoro-3-hydroxy-3-methylbutyl)nicotinamide]
5 | 8.52 | 2.9 | 6.24 | – | CCn1cc(Nc2cc(-c3cnc4cc(Cl)cnn34)ncc2C(=O)NC[C@@H](F)C(C)(C)O)cn1 [Example 266, (R)-6-(7-chloroimidazo[1,2-b]pyridazin-3-yl)-4-((1-ethyl-1H-pyrazol-4-yl)amino)-N-(2-fluoro-3-hydroxy-3-methylbutyl) nicotinamide]
6 | 8.52 | 17.5 | 7.00 | – | CC(C)(O)[C@H](F)CNC(=O)c1cnc(-c2cnn3cc(Cl)cnc23)cc1NC1COC1 [Example 5, (R)-6-(6-chloropyrazolo[1,5-a]pyrimidin-3-yl)-N-(2-fluoro-3-hydroxy-3-methylbutyl)-4-(oxetan-3-ylamino)nicotinamide]
7 | 8.40 | 12.6 | 5.46 | – | CC(C)(O)[C@H](F)CNC(=O)c1cnc(-c2cnn3cc(Cl)cnc23)cc1NC1CC(F)(F)C1 [Example 65, (R)-6-(6-chloropyrazolo[1,5-a]pyrimidin-3-yl)-4-((3,3-difluorocyclobutyl)amino)-N-(2-fluoro-3-hydroxy-3-methylbutyl)nicotinamide]
8 | 8.22 | 7.2 | 5.78 | – | CCNc1cc(-c2cnn3cc(C#N)cnc23)ncc1C(=O)NC[C@@H](F)C(C)(C)O [Example 93, (R)-6-(6-cyanopyrazolo[1,5-a]pyrimidin-3-yl)-4-(ethylamino)-N-(2-fluoro-3-hydroxy-3-methylbutyl)nicotinamide]
9 | 8.70 | < 1.5 | 6.36 | – | CC(F)(F)Cn1cc(Nc2cc(-c3cnc4cc(C#N)cnn34)ncc2C(=O)NC[C@@H](F)C(C)(C)O)cn1 [Example 265, (R)-6-(7-cyanoimidazo[1,2-b]pyridazin-3-yl)-4-((1-(2,2-difluoropropyl)-1H-pyrazol-4-yl)amino)-N-(2-fluoro-3-hydroxy-3-methylbutyl)nicotinamide]
10 | 8.52 | < 1.5 | 6.37 | – | CC(C)(O)[C@H](F)CNC(=O)c1cnc(-c2cnn3cc(C#N)cnc23)cc1Nc1ccn(CC(F)F)n1 [Example 230, (R)-6-(6-cyanopyrazolo[1,5-a]pyrimidin-3-yl)-4-((1-(2,2-difluoroethyl)-1H-pyrazol-3-yl)amino)-N-(2-fluoro-3-hydroxy-3-methylbutyl)nicotinamide]
11 | 8.70 | 18.4 | 5.51 | – | CC(C)(O)[C@H](F)CNC(=O)c1cnc(-c2cnn3cc(Cl)cnc23)cc1NC1CCCC1 [Example 67, (R)-6-(6-chloropyrazolo[1,5-a]pyrimidin-3-yl)-4-(cyclopentylamino)-N-(2-fluoro-3-hydroxy-3-methylbutyl)nicotinamide]
12 | 8.05 | 1.8 | 6.35 | – | CC(C)n1cc(Nc2cc(-c3cnc4cc(C#N)cnn34)ncc2C(=O)NCCC(C)(C)O)cn1 [Example 287, 6-(7-cyanoimidazo[1,2-b]pyridazin-3-yl)-N-(3-hydroxy-3-methylbutyl)-4-((1-isopropyl-1H-pyrazol-4-yl)amino)nicotinamide]
13 | 9.00 | 3.7 | 6.85 | – | CCn1cc(Nc2cc(-c3cnn4cc(Cl)cnc34)ncc2C(=O)NC[C@@H](F)C(C)(C)O)cn1 [Example 232, (R)-6-(6-chloropyrazolo[1,5-a]pyrimidin-3-yl)-4-((1-ethyl-1H-pyrazol-4-yl)amino)-N-(2-fluoro-3-hydroxy-3-methylbutyl)nicotinamide]
14 | 7.96 | < 1.5 | 6.57 | – | CC(C)(O)[C@H](F)CNC(=O)c1cnc(-c2cnn3cc(Cl)cnc23)cc1NCCCO [Example 164, (R)-6-(6-chloropyrazolo[1,5-a]pyrimidin-3-yl)-N-(2-fluoro-3-hydroxy-3-methylbutyl)-4-((3-hydroxypropyl)amino)nicotinamide]
15 | 8.52 | < 1.5 | 7.10 | – | CC(C)(O)[C@H](F)CNC(=O)c1cnc(-c2cnc3cc(C#N)cnn23)cc1NC1CCOC1 (stereo partly drawn) [Example 201, 6-(7-cyanoimidazo[1,2-b]pyridazin-3-yl)-N—((R)-2-fluoro-3-hydroxy-3-methylbutyl)-4-((tetrahydrofuran-3-yl)amino) nicotinamide]
16 | 8.22 | < 1.5 | 6.24 | – | CC(O)CCNc1cc(-c2cnn3cc(Cl)cnc23)ncc1C(=O)NC[C@@H](F)C(C)(C)O (stereo partly drawn) [Example 82, 6-(6-chloropyrazolo[1,5-a]pyrimidin-3-yl)-N—((R)-2-fluoro-3-hydroxy-3-methylbutyl)-4-((3-hydroxybutyl)amino)nicotinamide]
17 | 8.70 | < 1.5 | 6.82 | – | CC(C)(O)[C@H](F)CNC(=O)c1cnc(-c2cnc3cc(C#N)cnn23)cc1NC1CCOCC1 [Example 146, (R)-6-(7-cyanoimidazo[1,2-b]pyridazin-3-yl)-N-(2-fluoro-3-hydroxy-3-methylbutyl)-4-((tetrahydro-2H-pyran-4-yl)amino)nicotinamide]
18 | 9.00 | 4.7 | 6.89 | – | CC(C)(O)[C@H](F)CNC(=O)c1cnc(-c2cnn3cc(Cl)cnc23)cc1Nc1cnn(C2CC2)c1 [Example 246, (R)-6-(6-chloropyrazolo[1,5-a]pyrimidin-3-yl)-4-((1-cyclopropyl-1H-pyrazol-4-yl)amino)-N-(2-fluoro-3-hydroxy-3-methylbutyl)nicotinamide]
19 | 8.00 | 12.6 | – | 6.06 | CC(C)Nc1cc(-c2cnc3cccnn23)ncc1C(=O)NC[C@@H](F)C(C)(C)O [Example 177, (R)—N-(2-fluoro-3-hydroxy-3-methylbutyl)-6-(imidazo[1,2-b]pyridazin-3-yl)-4-(isopropylamino)nicotinamide]
20 | 8.52 | 16.8 | 6.15 | – | CCCNc1cc(-c2cnc3cc(Cl)cnn23)ncc1C(=O)NC[C@@H](F)C(C)(C)O [Example 179, (R)-6-(7-chloroimidazo[1,2-b]pyridazin-3-yl)-N-(2-fluoro-3-hydroxy-3-methylbutyl)-4-(propylamino)nicotinamide]
21 | 8.10 | 14.2 | 6.19 | – | CC(C)Nc1cc(-c2cnn3cc(C#N)cnc23)ncc1C(=O)NCCC(C)(C)C#N [Example 169, N-(3-cyano-3-methylbutyl)-6-(6-cyanopyrazolo[1,5-a]pyrimidin-3-yl)-4-(isopropylamino)nicotinamide]
22 | 8.40 | 2.8 | 6.40 | – | CC(C)(O)[C@H](F)CNC(=O)c1cnc(-c2cnn3cc(C#N)cnc23)cc1NC1CCOCC1 [Example 90, (R)-6-(6-cyanopyrazolo[1,5-a]pyrimidin-3-yl)-N-(2-fluoro-3-hydroxy-3-methylbutyl)-4-((tetrahydro-2H-pyran-4-yl)amino)nicotinamide]
23 | 9.00 | < 1.5 | 6.44 | – | CCCn1cc(Nc2cc(-c3cnc4cc(C#N)cnn34)ncc2C(=O)NC[C@@H](F)C(C)(C)O)cn1 [Example 278, (R)-6-(7-cyanoimidazo[1,2-b]pyridazin-3-yl)-N-(2-fluoro-3-hydroxy-3-methylbutyl)-4-((1-propyl-1H-pyrazol-4-yl)amino)nicotinamide]
24 | 8.40 | 27 | 5.31 | – | CC(C)(O)[C@H](F)CNC(=O)c1cnc(-c2cnn3cc(Cl)cnc23)cc1NC1CCC1 [Example 60, (R)-6-(6-chloropyrazolo[1,5-a]pyrimidin-3-yl)-4-(cyclobutylamino)-N-(2-fluoro-3-hydroxy-3-methylbutyl)nicotinamide]
25 | 8.52 | < 1.5 | 6.55 | – | CC(C)(O)[C@H](F)CNC(=O)c1cnc(-c2cnn3cc(Cl)cnc23)cc1Nc1cnn(C2CCOCC2)c1 [Example 52, (R)-6-(6-chloropyrazolo[1,5-a]pyrimidin-3-yl)-N-(2-fluoro-3-hydroxy-3-methylbutyl)-4-((1-(tetrahydro-2H-pyran-4-yl)-1H-pyrazol-4-yl)amino)nicotinamide]
